Source: patent US11117861B2, “Phenylpyrrolidinone formyl peptide 2 receptor agonists” (BRISTOL-MYERS SQUIBB COMPANY, priority 2018, dated 2021)

How the values were obtained:
[1] = molecular target: human FPR1 (Homo sapiens (Human), UniProt P21462); test: FPR1 cyclic adenosine monophosphate (cAMP) assay in CHO cells overexpressing human FPR1; assay type: cell-based; conditions: forskolin 10 μM, inhibition of cAMP production, read-out: hFPR1 cAMP EC50
Description: FPR2 and FPR1 Cyclic Adenosine Monophosphate (cAMP) Assays were used to measure the activity of the compounds in this patent.
A mixture of forskolin (5 μM final for FPR2 or 10 μM final for FPR1) and IBMX (200 μM final) were added to 384-well Proxiplates (Perkin-Elmer) pre-dotted with test compounds in DMSO (1% final) at final concentrations in the range of 0.020 nM to 100 μM. Chinese Hamster Ovary cells (CHO) overexpressing human FPR1 or human FPR2 receptors were cultured in F-12 (Ham's) medium supplemented with 10% qualified FBS, 250 μg/ml zeocin and 300 μg/ml hygromycin (Life Technologies). Reactions were initiated by adding 2,000 human FPR2 cells per well or 4,000 human FPR1 cells per well in Dulbecco's PBS (with calcium and magnesium) (Life Technologies) supplemented with 0.1% BSA (Perkin-Elmer). The reaction mixtures were incubated for 30 min at room temperature. The level of intracellular cAMP was determined using the HTRF HiRange cAMP assay reagent kit (Cisbio) according to manufacturer's instruction. Solutions of cryptate conjugated anti-cAMP and d2 flurorophore-labelled cAMP were made in a supplied lysis buffer separately. […] The potency and activity of a compound to inhibit cAMP production was then determined by fitting to a 4-parametric logistic equation from a plot of cAMP level versus compound concentrations.

[2] = molecular target: human FPR2 (Homo sapiens (Human), UniProt P25090); test: FPR2 cyclic adenosine monophosphate (cAMP) assay in CHO cells overexpressing human FPR2; assay type: cell-based; conditions: forskolin 5 μM, inhibition of cAMP production, read-out: hFPR2 cAMP2 EC50
Description: N-formyl peptide receptors (FPRs) are a family of chemo attractant receptors that facilitate leukocyte response during inflammation. FPRs belong to the seven-transmembrane G protein-coupled receptor superfamily and are linked to inhibitory G-proteins (Gi). Three family members (FPR1, FPR2 and FPR3) have been identified in humans and are predominantly found in myeloid cells with varied distribution and have also been reported in multiple organs and tissues. After agonist binding, the FPRs activate a multitude of physiological pathways, such as intra cellular signaling transduction, Ca^2+ mobilization and transcription. The family interacts with a diverse set of ligands that includes proteins, polypeptides and fatty acid metabolites which activate both pro-inflammatory and pro-resolution downstream responses. […]
FPR2 and FPR1 Cyclic Adenosine Monophosphate (cAMP) Assays. […] The level of intracellular cAMP was determined using the HTRF HiRange cAMP assay reagent kit (Cisbio) according to manufacturer's instruction. […] After a 1-h room temperature incubation, time-resolved fluorescence intensity was measured using the Envision (Perkin-Elmer) at 400 nm excitation and dual emission at 590 nm and 665 nm. […] The potency and activity of a compound to inhibit cAMP production was then determined by fitting to a 4-parametric logistic equation from a plot of cAMP level versus compound concentrations. […]

Chain of human FPR1 (P21462 whole entry): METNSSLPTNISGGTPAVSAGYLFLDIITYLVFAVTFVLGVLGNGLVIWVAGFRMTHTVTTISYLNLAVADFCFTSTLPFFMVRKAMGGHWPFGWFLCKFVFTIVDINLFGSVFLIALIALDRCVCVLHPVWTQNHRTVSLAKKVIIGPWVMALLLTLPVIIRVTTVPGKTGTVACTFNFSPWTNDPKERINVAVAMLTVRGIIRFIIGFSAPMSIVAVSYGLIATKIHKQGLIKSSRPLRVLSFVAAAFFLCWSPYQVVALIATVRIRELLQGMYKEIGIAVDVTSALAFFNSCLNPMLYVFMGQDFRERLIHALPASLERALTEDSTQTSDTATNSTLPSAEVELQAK
Chain of human FPR2 (P25090 whole entry): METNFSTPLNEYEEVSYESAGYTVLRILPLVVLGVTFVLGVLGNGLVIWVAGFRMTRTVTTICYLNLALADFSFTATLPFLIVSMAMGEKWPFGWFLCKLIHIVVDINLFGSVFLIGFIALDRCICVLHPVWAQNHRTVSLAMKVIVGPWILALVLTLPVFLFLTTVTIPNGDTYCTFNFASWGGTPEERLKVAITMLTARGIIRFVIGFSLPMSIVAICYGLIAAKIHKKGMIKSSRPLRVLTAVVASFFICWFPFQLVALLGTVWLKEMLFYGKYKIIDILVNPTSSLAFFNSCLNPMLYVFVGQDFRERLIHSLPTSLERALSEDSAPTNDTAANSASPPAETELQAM

Compound: COc1c(-c2ccccc2CO)ccc(N2CC[C@@H](NC(=O)Nc3ccc(Cl)cc3F)C2=O)c1F [Example 35]
- EC50 [1]: 52 nM
- EC50 [2]: 8.6 nM
